Source: the kinase profiling compilation of Christmann-Franck et al. (2016)

Tests used:
Test in all cases: radiometric filter-binding kinase assay, Kinase HotSpot
Settings in all cases: compound 0.5 µM; ATP 10 µM
ABL2 (human) = ABL2 (human) (UniProt P42684)
AXL (human) = AXL (human) (UniProt P30530)
BMX (human) = BMX (human) (UniProt P51813)
BRAF (human) = BRAF (human) (UniProt P15056)
CAMKK1 (human) = CAMKK1 (human) (UniProt Q8N5S9)
CDK2 CCNE1 (human) = CDK2 CCNE1 (human) (UniProt P24941+P24864)
Sequence of CDK2 CCNE1 (human) (P24864 whole entry, looked up, other chains not shown): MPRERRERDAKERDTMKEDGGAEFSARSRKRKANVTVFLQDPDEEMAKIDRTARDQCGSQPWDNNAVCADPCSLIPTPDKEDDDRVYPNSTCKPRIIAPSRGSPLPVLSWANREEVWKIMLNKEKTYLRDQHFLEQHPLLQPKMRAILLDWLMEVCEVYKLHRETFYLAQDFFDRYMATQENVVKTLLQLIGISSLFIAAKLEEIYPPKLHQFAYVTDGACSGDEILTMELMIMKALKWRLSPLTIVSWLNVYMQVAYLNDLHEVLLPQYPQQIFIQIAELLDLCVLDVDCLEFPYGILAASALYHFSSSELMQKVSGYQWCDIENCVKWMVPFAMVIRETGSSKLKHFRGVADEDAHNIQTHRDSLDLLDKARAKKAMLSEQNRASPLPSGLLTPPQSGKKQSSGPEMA

CDK9 CCNT1 (human) = CDK9 CCNT1 (human) (UniProt P50750+O60563)
CHEK1 (human) = CHEK1 (human) (UniProt O14757)
CHEK2 (human) = CHEK2 (human) (UniProt O96017)
CLK3 (human) = CLK3 (human) (UniProt P49761)
CSK (human) = CSK (human) (UniProt P41240)
CSNK1G1 (human) = CSNK1G1 (human) (UniProt Q9HCP0)
DSTYK (human) = DSTYK (human) (UniProt Q6XUX3)
Sequence of DSTYK (human) (Q6XUX3 whole entry, looked up): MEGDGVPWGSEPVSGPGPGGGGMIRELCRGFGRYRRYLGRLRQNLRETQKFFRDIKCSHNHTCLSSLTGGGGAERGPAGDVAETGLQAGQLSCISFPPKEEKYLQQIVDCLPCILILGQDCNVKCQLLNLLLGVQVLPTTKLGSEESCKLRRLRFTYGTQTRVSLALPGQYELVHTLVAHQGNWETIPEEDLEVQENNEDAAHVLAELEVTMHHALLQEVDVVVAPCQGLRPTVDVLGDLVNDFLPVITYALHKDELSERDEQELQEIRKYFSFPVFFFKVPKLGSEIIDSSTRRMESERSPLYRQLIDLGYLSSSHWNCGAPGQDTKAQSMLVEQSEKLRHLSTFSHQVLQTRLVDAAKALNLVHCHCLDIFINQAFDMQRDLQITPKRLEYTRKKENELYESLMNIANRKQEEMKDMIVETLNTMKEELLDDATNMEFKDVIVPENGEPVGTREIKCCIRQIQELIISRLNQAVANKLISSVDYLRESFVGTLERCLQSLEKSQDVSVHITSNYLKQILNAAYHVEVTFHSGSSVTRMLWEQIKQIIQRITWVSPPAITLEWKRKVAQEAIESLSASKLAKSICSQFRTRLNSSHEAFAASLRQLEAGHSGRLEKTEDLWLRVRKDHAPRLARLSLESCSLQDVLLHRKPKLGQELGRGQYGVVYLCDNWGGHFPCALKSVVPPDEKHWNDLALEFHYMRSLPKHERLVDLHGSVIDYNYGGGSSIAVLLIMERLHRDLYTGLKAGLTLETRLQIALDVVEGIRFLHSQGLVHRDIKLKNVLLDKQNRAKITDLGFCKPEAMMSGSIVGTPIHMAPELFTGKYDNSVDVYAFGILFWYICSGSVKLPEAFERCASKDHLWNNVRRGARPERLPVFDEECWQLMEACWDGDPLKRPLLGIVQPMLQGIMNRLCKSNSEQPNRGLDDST

DYRK2 (human) = DYRK2 (human) (UniProt Q92630)
EPHB2 (human) = EPHB2 (human) (UniProt P29323)
GRK7 (human) = GRK7 (human) (UniProt Q8WTQ7)
HIPK4 (human) = HIPK4 (human) (UniProt Q8NE63)
ITK (human) = ITK (human) (UniProt Q08881)
[1] = target: JAK1 JH1 catalytic (human) (UniProt P23458)
LTK (human) = LTK (human) (UniProt P29376)
MAP3K2 (human) = MAP3K2 (human) (UniProt Q9Y2U5)
MAP3K9 (human) = MAP3K9 (human) (UniProt P80192)
Sequence of MAP3K9 (human) (P80192 whole entry, looked up): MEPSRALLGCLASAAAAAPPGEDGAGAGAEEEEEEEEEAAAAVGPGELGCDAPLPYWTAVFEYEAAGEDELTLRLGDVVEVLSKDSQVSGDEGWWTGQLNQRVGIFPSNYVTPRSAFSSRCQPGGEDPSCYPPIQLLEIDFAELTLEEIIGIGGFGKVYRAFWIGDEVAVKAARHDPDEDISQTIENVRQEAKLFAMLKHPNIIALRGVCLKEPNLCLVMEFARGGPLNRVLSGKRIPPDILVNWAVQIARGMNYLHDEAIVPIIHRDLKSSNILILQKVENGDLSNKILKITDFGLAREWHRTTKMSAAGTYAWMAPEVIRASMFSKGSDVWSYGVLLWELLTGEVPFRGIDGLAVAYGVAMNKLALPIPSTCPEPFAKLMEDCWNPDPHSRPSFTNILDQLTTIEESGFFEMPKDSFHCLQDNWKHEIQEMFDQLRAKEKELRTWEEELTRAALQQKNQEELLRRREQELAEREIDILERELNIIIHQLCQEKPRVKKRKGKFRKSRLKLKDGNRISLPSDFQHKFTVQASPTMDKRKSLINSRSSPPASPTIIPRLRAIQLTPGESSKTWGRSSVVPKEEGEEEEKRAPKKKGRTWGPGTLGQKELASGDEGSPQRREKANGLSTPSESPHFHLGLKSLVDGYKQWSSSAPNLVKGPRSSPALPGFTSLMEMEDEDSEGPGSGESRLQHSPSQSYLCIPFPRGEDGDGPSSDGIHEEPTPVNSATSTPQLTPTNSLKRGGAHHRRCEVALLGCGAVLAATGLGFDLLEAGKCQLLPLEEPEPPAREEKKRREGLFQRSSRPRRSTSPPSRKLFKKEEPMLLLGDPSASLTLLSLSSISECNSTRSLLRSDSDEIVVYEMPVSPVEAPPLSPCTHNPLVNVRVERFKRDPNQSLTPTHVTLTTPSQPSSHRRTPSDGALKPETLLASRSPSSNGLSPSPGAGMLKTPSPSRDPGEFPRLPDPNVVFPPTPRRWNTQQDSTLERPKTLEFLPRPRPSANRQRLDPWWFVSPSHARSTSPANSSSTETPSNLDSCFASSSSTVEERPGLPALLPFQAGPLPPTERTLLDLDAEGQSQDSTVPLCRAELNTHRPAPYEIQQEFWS

MAPK10 (human) = MAPK10 (human) (UniProt P53779)
MARK3 (human) = MARK3 (human) (UniProt P27448)
MKNK2 (human) = MKNK2 (human) (UniProt Q9HBH9)
NEK1 (human) = NEK1 (human) (UniProt Q96PY6)
NTRK2 (human) = NTRK2 (human) (UniProt Q16620)
NUAK1 (human) = NUAK1 (human) (UniProt O60285)
NUAK2 (human) = NUAK2 (human) (UniProt Q9H093)
PAK7 (human) = PAK7 (human) (UniProt Q9P286)
PKN2 (human) = PKN2 (human) (UniProt Q16513)
PRKCA (human) = PRKCA (human) (UniProt P17252)
PRKCD (human) = PRKCD (human) (UniProt Q05655)
PRKCZ (human) = PRKCZ (human) (UniProt Q05513)
Sequence of PRKCZ (human) (Q05513 whole entry, looked up): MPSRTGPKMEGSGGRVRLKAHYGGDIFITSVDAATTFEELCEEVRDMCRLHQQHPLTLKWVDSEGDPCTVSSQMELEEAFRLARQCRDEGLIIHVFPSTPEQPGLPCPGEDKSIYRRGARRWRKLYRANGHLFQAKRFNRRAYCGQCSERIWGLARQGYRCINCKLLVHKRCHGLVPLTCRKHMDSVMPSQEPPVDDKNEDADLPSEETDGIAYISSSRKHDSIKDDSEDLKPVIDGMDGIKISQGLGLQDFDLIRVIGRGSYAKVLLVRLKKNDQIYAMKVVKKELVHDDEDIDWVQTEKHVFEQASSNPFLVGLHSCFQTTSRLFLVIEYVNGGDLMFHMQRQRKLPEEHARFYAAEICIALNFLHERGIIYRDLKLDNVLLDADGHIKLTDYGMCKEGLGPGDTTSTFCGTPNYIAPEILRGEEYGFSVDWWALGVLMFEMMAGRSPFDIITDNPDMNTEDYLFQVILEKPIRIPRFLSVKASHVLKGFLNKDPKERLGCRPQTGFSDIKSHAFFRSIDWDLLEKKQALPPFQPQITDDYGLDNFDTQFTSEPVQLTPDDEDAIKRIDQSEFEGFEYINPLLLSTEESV

PRKD1 (human) = PRKD1 (human) (UniProt Q15139)
PRKD2 (human) = PRKD2 (human) (UniProt Q9BZL6)
PTK6 (human) = PTK6 (human) (UniProt Q13882)
TAOK1 (human) = TAOK1 (human) (UniProt Q7L7X3)
TAOK2 (human) = TAOK2 (human) (UniProt Q9UL54)
Sequence of TAOK2 (human) (Q9UL54 whole entry, looked up): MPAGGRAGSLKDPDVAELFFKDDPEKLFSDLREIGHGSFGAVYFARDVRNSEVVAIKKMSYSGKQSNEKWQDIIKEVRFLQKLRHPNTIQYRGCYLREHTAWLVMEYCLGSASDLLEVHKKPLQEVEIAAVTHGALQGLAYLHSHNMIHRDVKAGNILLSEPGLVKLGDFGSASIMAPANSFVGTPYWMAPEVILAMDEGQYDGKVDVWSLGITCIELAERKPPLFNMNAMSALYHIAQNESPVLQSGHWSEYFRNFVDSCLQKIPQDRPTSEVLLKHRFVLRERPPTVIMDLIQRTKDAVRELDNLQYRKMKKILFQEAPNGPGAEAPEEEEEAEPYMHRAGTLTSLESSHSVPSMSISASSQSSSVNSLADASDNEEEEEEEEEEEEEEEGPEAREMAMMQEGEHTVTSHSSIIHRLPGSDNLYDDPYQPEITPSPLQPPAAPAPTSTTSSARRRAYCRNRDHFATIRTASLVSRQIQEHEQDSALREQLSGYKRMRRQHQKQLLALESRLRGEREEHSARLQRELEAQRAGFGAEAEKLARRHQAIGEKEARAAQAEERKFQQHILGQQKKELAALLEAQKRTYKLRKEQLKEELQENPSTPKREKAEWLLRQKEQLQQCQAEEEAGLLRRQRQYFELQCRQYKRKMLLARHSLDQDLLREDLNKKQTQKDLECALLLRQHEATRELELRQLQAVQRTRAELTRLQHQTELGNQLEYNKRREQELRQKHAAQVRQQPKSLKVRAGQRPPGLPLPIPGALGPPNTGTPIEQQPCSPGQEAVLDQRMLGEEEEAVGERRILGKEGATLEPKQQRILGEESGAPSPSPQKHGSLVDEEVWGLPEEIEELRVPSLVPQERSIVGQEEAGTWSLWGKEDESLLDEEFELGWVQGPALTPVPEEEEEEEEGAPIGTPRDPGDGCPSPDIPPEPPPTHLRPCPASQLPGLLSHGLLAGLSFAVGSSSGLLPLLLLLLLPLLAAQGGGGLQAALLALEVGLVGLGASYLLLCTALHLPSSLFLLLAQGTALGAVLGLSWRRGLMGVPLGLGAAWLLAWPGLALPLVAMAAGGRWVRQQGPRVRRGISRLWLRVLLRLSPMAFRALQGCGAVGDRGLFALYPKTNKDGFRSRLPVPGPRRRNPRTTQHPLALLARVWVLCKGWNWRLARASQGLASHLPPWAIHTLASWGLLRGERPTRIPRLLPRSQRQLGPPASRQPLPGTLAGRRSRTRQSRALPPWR

TTK (human) = TTK (human) (UniProt P33981)
YES1 (human) = YES1 (human) (UniProt P07947)
Sequence of YES1 (human) (P07947 whole entry, looked up): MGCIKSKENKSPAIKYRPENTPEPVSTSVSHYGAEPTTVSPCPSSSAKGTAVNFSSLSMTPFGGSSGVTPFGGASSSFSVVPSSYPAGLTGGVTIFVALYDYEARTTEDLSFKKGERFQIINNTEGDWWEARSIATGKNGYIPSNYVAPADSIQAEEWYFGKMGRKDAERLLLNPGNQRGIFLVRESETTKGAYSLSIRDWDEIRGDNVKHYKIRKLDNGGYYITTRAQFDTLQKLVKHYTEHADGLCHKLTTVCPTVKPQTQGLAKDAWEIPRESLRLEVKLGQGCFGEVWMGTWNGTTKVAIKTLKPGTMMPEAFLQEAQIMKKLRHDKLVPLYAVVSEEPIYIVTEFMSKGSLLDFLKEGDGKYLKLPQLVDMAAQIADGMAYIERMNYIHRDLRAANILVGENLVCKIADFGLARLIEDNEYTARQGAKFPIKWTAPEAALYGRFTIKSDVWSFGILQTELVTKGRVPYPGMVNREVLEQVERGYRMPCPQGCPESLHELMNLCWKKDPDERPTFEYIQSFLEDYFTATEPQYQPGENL

O=C(Nc1cccc(Nc2nccc(Nc3cccc(C(F)(F)F)c3)n2)c1)C1CC1
residual activity (ABL2 (human)): 83.8% | residual activity (AXL (human)): 104% | residual activity (BMX (human)): 83.6% | residual activity (BRAF (human)): 104% | residual activity (CAMKK1 (human)): 97.9% | residual activity (CDK2 CCNE1 (human)): 85.1% | residual activity (CDK9 CCNT1 (human)): 86.8% | residual activity (CHEK1 (human)): 96.6% | residual activity (CHEK2 (human)): 107% | residual activity (CLK3 (human)): 104% | residual activity (CSK (human)): 97.4% | residual activity (CSNK1G1 (human)): 105% | residual activity (DSTYK (human)): 93.8% | residual activity (DYRK2 (human)): 106% | residual activity (EPHB2 (human)): 97.8% | residual activity (GRK7 (human)): 101% | residual activity (HIPK4 (human)): 111% | residual activity (ITK (human)): 101% | residual activity [1]: 74% | residual activity (LTK (human)): 104% | residual activity (MAP3K2 (human)): 91.6% | residual activity (MAP3K9 (human)): 95.2% | residual activity (MAPK10 (human)): 99% | residual activity (MARK3 (human)): 102% | residual activity (MKNK2 (human)): 91.3% | residual activity (NEK1 (human)): 82.8% | residual activity (NTRK2 (human)): 71.6% | residual activity (NUAK1 (human)): 67.2% | residual activity (NUAK2 (human)): 94.3% | residual activity (PAK7 (human)): 89.2% | residual activity (PKN2 (human)): 89.5% | residual activity (PRKCA (human)): 71.9% | residual activity (PRKCD (human)): 87.9% | residual activity (PRKCZ (human)): 98.8% | residual activity (PRKD1 (human)): 94.1% | residual activity (PRKD2 (human)): 101% | residual activity (PTK6 (human)): 72.3% | residual activity (TAOK1 (human)): 97.9% | residual activity (TAOK2 (human)): 92.4% | residual activity (TTK (human)): 92.1% | residual activity (YES1 (human)): 78.9%

CC[n+]1c(/C=C/N(C)c2ccccc2)n(-c2ccccc2)c2ccc(-c3nc4ccccc4s3)cc21
residual activity (ABL2 (human)): 95.7% | residual activity (AXL (human)): 101% | residual activity (BMX (human)): 108% | residual activity (BRAF (human)): 100% | residual activity (CAMKK1 (human)): 115% | residual activity (CDK2 CCNE1 (human)): 92.9% | residual activity (CDK9 CCNT1 (human)): 89.5% | residual activity (CHEK1 (human)): 103% | residual activity (CHEK2 (human)): 105% | residual activity (CLK3 (human)): 114% | residual activity (CSK (human)): 100% | residual activity (CSNK1G1 (human)): 104% | residual activity (DSTYK (human)): 103% | residual activity (DYRK2 (human)): 105% | residual activity (EPHB2 (human)): 99.1% | residual activity (GRK7 (human)): 100% | residual activity (HIPK4 (human)): 102% | residual activity (ITK (human)): 92.7% | residual activity [1]: 104% | residual activity (LTK (human)): 90.7% | residual activity (MAP3K2 (human)): 90.3% | residual activity (MAP3K9 (human)): 98.3% | residual activity (MAPK10 (human)): 92.7% | residual activity (MARK3 (human)): 98.8% | residual activity (MKNK2 (human)): 97.4% | residual activity (NEK1 (human)): 102% | residual activity (NTRK2 (human)): 97.8% | residual activity (NUAK1 (human)): 96.1% | residual activity (NUAK2 (human)): 93.3% | residual activity (PAK7 (human)): 98.6% | residual activity (PKN2 (human)): 79.2% | residual activity (PRKCA (human)): 77.7% | residual activity (PRKCD (human)): 93.3% | residual activity (PRKCZ (human)): 99.8% | residual activity (PRKD1 (human)): 91.9% | residual activity (PRKD2 (human)): 102% | residual activity (PTK6 (human)): 90.2% | residual activity (TAOK1 (human)): 99.4% | residual activity (TAOK2 (human)): 97.7% | residual activity (TTK (human)): 96.6% | residual activity (YES1 (human)): 94.9%

Cc1ccc(NC2=CC(=O)c3sc(C)nc3C2=O)cc1
residual activity (ABL2 (human)): 98.3% | residual activity (AXL (human)): 97% | residual activity (BMX (human)): 100% | residual activity (BRAF (human)): 96.7% | residual activity (CAMKK1 (human)): 108% | residual activity (CDK2 CCNE1 (human)): 72.9% | residual activity (CDK9 CCNT1 (human)): 97.6% | residual activity (CHEK1 (human)): 91.1% | residual activity (CHEK2 (human)): 100% | residual activity (CLK3 (human)): 98.6% | residual activity (CSK (human)): 102% | residual activity (CSNK1G1 (human)): 102% | residual activity (DSTYK (human)): 76.1% | residual activity (DYRK2 (human)): 109% | residual activity (EPHB2 (human)): 100% | residual activity (GRK7 (human)): 101% | residual activity (HIPK4 (human)): 93.7% | residual activity (ITK (human)): 98.6% | residual activity [1]: 95.1% | residual activity (LTK (human)): 88.8% | residual activity (MAP3K2 (human)): 93.3% | residual activity (MAP3K9 (human)): 86.7% | residual activity (MAPK10 (human)): 105% | residual activity (MARK3 (human)): 95.1% | residual activity (MKNK2 (human)): 89% | residual activity (NEK1 (human)): 76.5% | residual activity (NTRK2 (human)): 100% | residual activity (NUAK1 (human)): 93% | residual activity (NUAK2 (human)): 105% | residual activity (PAK7 (human)): 77.4% | residual activity (PKN2 (human)): 115% | residual activity (PRKCA (human)): 100% | residual activity (PRKCD (human)): 104% | residual activity (PRKCZ (human)): 98.2% | residual activity (PRKD1 (human)): 102% | residual activity (PRKD2 (human)): 87.7% | residual activity (PTK6 (human)): 89.2% | residual activity (TAOK1 (human)): 99.8% | residual activity (TAOK2 (human)): 96.6% | residual activity (TTK (human)): 98.9% | residual activity (YES1 (human)): 86.7%
